# Assay results published in publication PMC12017328, “RNA toehold switch-based reporter assay to assess bacterial uptake of antisense oligomers” (mBio, 2025).
# Columns and labels:
# [1] = test system: Salmonella, UPEC 536, E. coli MG1655 and BW25113 expressing TS7-Mut_9::sfGFP; assay: Toehold switch reporter assay, flow cytometry, statements for all strains; format: cell-based, Salmonella enterica; E. coli; details: CPP conjugated to PNA_toe, 5 µM; for Dynamics of sfGFP upregulation: measured at 4, 6 and 17 h, all strains
# Method: According to previous RNA-seq analyses ([12], [13], [22]), CPP-PNAs can strongly downregulate target mRNAs within 15 min. […] We therefore repeated the screen conducted and assayed fluorescence by flow cytometry at 4, 6, and 17 h post-treatment. […] The level of upregulation observed in the E. coli K12 strains was again substantially lower than in Salmonella and UPEC 536. […] This might be related to the stability of KFF in the culture media.
# Fig 9 Flow cytometric analysis of fluorescence of sfGFP informs on delivery efficiency of CPPs. Bacterial cultures expressing the TS7-Mut_9::sfGFP reporter construct treated with the indicated CPP-PNA_toe constructs at 5 µM each. The median fluorescence intensity of sfGFP was measured after 4 h (black bars), 6 h (dark gray bars), and 17 h (light gray bars) of treatment using flow cytometry. Relative upregulation of sfGFP is shown and was calculated by dividing the median fluorescence intensity of the test samples by the median fluorescence intensity of the control samples, to which water was added. Error bars indicate the standard deviation calculated from two independent experiments.
# (§1) Overnight cultures of respective bacterial strains (listed in Table S5) were diluted 1:100 in fresh MHB and grown to OD600 0.3. Overnight and secondary cultures were prepared with or without chloramphenicol (20 µg/mL) depending on the antibiotic resistance profile of the strain. Ninty-five microliters of the 0.3 OD600 bacterial suspension was distributed in the 96-well plate and mixed with 5 µL water or 20× CPP PNA working solutions (150 µM, 100 µM or 50 µM stocks in water). An equivalent volume of water was added to the bacteria to serve as untreated control. For testing the activity in other growth media (M9 minimal medium and LB), the bacteria were cultured in the respective media and treated as described above.
# (§2) Bacterial cells were treated as described above, fixed with 4% paraformaldehyde (PFA) in phosphate-buffered saline (PBS) after the indicated time points, and stained with 1 µg/mL DAPI for flow cytometric measurement of DAPI-positive bacterial cells. Cell suspensions were diluted by a factor of ~100–1,000 in PBS and sampled from 96-well plates to achieve ~2,000 counts/s for flow cytometric measurements. Flow cytometry was performed using the Agilent Novocyte flow cytometer with a high-throughput sampler, and 100,000 events were recorded per sample. The DAPI fluorescence was detected using the Pacific Blue channel; sfGFP and mNeon were detected in the FITC channel, and mCherry fluorescence in the PE-Texas Red channel. The lower threshold for FSC-H was set to 2,000 to eliminate the potential artifacts from smaller particles such as dust, bubbles, or cell debris. The wild-type strains without plasmids served as a control to detect the background fluorescence, termed bacterial background. A contour plot with FSC and SSC, each with bins defined on a logarithmic scale was used to select singlets. The gating strategy is described in Fig.S6. The median fluorescence intensity was used for calculating the fold upregulation of fluorescence. Flow cytometry data sets were analyzed using the Novocyte software (Agilent).
# (§3) Fold upregulation in median fluorescence intensity (FI) from flow cytometry was calculated as follows:
# (§4) fold upregulation = FI (sample)−FI(bacterial background)/FI (water control)−FI(bacterial background)
# [2] = test system: Salmonella carrying the TS7::sfGFP reporter plasmid; assay: Toehold switch reporter assay, microplate reader; format: cell-based, Salmonella enterica serovar Typhimurium strain SL1344; details: CPP conjugated to PNA_toe, 5 µM, TS7-Mut_9::sfGFP, 17 h, MHB; for Fold increase in fluorescence compared to the water-treated control: normalized to OD600
# Description: Next, we tested whether 11-mer PNAs can activate the toehold switch in bacteria. We established the reporter assay in Salmonella enterica serovar Typhimurium (referred to as Salmonella hereafter), which we have previously used as a model organism for studying PNAs ([13], [17], [22]). In constructing a reporter plasmid, we cloned the TS7 sequence upstream of the coding sequence of superfolder GFP (sfGFP) and downstream of a constitutive PLtetO-1 promoter in the pXG10-SF vector ([35]) (see Materials and Methods for details). The final product is a fusion protein (TS7::sfGFP) in which the 10 amino acids from the short TS7 coding sequence are genetically linked to the N-terminus of sfGFP. We introduced the reporter plasmid in Salmonella. The bacteria were grown to an early log-phase in standard Mueller-Hinton broth (MHB), commonly used for testing antibacterial activity ([36]). As a proof-of-concept, we chose to deliver the PNAs through conjugation with (KFF)3K, a frequently used CPP (referred to as KFF hereafter). We tested two PNAs, PNA_toe as used above in vitro and a PNA that targets the mid-stem region (PNA_mid) of the switch (Fig. 2A). We treated the bacterial culture with varying concentrations (2.5 µM, 5 µM, or 7.5 µM) of the KFF-PNAs in a microtiter plate, recording GFP fluorescence and turbidity as bacterial growth continued.
# as §1
# (§5) The PNA-treated samples were incubated in the plate reader for 4–24 h at 37°C, with continuous double-orbital shaking (237 counts per minute). The fluorescence (λex 480 nm/λem 510 nm) and OD600 were recorded in a Synergy H1 plate reader (Biotek) by measuring every 20 min. The bacteria were sampled at various time points post-treatment and further analyzed by flow cytometry.
# (§6) Normalization of fluorescence intensity (FInorm) = FI (sample)−FI (medium background)/OD
# Fold upregulation in fluorescence intensity (FI) from the plate reader was calculated as follows:
# fold upregulation = FI (normalized sample)/FI (normalized control)
# [3] = test system: Salmonella carrying the TS7::sfGFP reporter plasmid; assay: Toehold switch reporter assay, flow cytometry; format: cell-based, Salmonella enterica serovar Typhimurium strain SL1344
# Method: as §1, §5, §2, §3, §4
# [4] = test system: Salmonella ΔsbmA mutant carrying TS7-Mut_9::sfGFP; assay: Toehold switch reporter assay, flow cytometry, ΔsbmA mutant; format: cell-based, Salmonella enterica serovar Typhimurium; details: 5 µM, 4 h
# Description: To confirm that activation of the toehold-switch reporter correlates with successful uptake of PNAs, we used a Salmonella ΔsbmA mutant strain unable to express the inner membrane transporter SbmA. […] In the ΔsbmA strain, treatment with KFF-PNA_toe triggered only marginal GFP expression in a small subpopulation of cells (ca 20%) as opposed to nearly 100% of all cells in the corresponding wild-type strain (Fig. 6A). The overall fluorescence intensity (FI) of the ΔsbmA mutant was also much lower than the wild-type strain (Fig. 6B).
# Fig 6 Flow cytometric analysis of CPP-PNA uptake using the toehold switch reporter in a ΔsbmA mutant of Salmonella. […] (B) Median fluorescence intensity values for water-treated control (Control, black) and PNA-treated (KFF-PNA_toe, orange) samples are given in the plots. […]
# (§7) Bacterial cells were treated as described above, fixed with 4% paraformaldehyde (PFA) in phosphate-buffered saline (PBS) after the indicated time points, and stained with 1 µg/mL DAPI for flow cytometric measurement of DAPI-positive bacterial cells. […] Flow cytometry was performed using the Agilent Novocyte flow cytometer with a high-throughput sampler, and 100,000 events were recorded per sample. The DAPI fluorescence was detected using the Pacific Blue channel; sfGFP and mNeon were detected in the FITC channel, and mCherry fluorescence in the PE-Texas Red channel. […]
# [5] = test system: E. coli BW25113, MG1655 and UPEC 536 carrying TS7-Mut_9::sfGFP; assay: Toehold switch reporter assay, microplate reader, E. coli strains; format: cell-based; details: CPP conjugated to PNA_toe; 5 µM; 17 h; MHB; all three E. coli strains
# Description: Having established the CPP screening assay in Salmonella, we next tested it in E. coli. We chose the E. coli K12 strains BW25113 and MG1655, and the uropathogenic isolate E. coli 536 (UPEC 536). […] To test if the low fluorescence was due to lower sfGFP protein levels, we performed a western blot analysis after treating the bacteria with CPP-PNAs (Fig. S4). The upregulation of sfGFP protein correlated with fluorescence upregulation. The E. coli K12 strains were less susceptible than Salmonella. For these strains, a more sensitive method compared to the microplate reader such as flow cytometry might provide better results.
# Fig 8 Examining the performance of the toehold switch assay for screening of CPPs against E. coli. Various E. coli strains carrying the TS7-Mut_9::sfGFP encoding plasmid were treated with different CPP-PNA_toe constructs at 5 µM. As negative control, an equal volume of water (Control) was added instead. (A) Fluorescence intensity of sfGFP was recorded in a microplate reader for 17 h post-treatment measured in a microplate reader. (B) Upregulation in sfGFP fluorescence calculated relative to the water control based on the normalized fluorescence intensities at 17 h post-treatment. The experiment was performed two times, and bars indicate the mean value; error bars indicate the standard deviation from two independent experiments.
# Overnight cultures of respective bacterial strains (listed in Table S5) were diluted 1:100 in fresh MHB and grown to OD600 0.3. […]
# as §5, §6
# Fold upregulation in fluorescence intensity (FI) from the plate reader was calculated as follows: […]
# [6] = cited from earlier work
# Description: (§8) For example, we observed a rapid but transient increase in fluorescence for some CPPs (e.g., KFF) and a sustained increase for others (e.g., RXR). This variation can likely be explained by the chemistry and stability of these carriers. […] Therefore, the different dynamics in fluorescence increase c ...
# [7] = test system: E. coli BW25113 expressing TS7-Mut_9::sfGFP; assay: Toehold switch reporter assay, flow cytometry; format: cell-based; details: CPP conjugated to PNA_toe, 5 µM, 17 h
# Method: as §1, with “For testing the activity in other growth media (M9 minimal medium and LB), the bacteria were cultured in the respective media and treated as described above.” left out
# as §5
# as §7, with “sample.” for “sample. The DAPI fluorescence was detected using the Pacific Blue channel; sfGFP and mNeon were detected in the FITC channel, and mCherry fluorescence in the PE-Texas Red channel.”
# bacteria = details: CPP conjugated to anti-acpP PNA; ref [13]; cited from earlier work
# Description: as §8
substance,measurement,setting,value
"GRRRRRRRRRPPQ [R9-TAT, cell-penetrating peptide …]",Dynamics of sfGFP upregulation,[1],only showed upregulation at the 17 h time point
same,Fold increase in fluorescence compared to the water-treated control,[2],negligible upregulation
KFFKFFKFFK [KFF-PNA_ctrl],Activation of GFP expression,"[3]; TS7::sfGFP, 7.5 µM, 4 h post-treatment, MHB",did not activate GFP expression
KFFKFFKFFK [KFF-PNA_toe],GFP positive population,[4],~20%
same,Upregulation of the reporter (median fluorescence vs water control),"[3]; TS7-Mut_9::sfGFP, 5 µM, 4 h, Luria broth (LB)",6- to 8 fold
same,Activation of the reporter (median fluorescence vs water control),"[3]; TS7-Mut_9::sfGFP, 5 µM, 4 h, M9 minimal medium",50- to 60 fold
same,Activation of the reporter (median fluorescence vs water control),"[3]; TS7-Mut_9::sfGFP, 5 µM, 4 h, MHB, two independent experiments",50- to 60 fold
same,Activation of the reporter compared with the original switch,"[3]; TS7-Mut_13::sfGFP, 5 µM, 4 h, MHB",no improvement over the original switch
same,Activation of the reporter compared with the original switch,"[3]; TS7-Mut_18::sfGFP, 5 µM, 4 h, MHB",no improvement over the original switch
same,Upregulation of the reporter (median fluorescence vs water control),"[3]; original TS7::sfGFP, 4 h, MHB",around 30 fold
same,GFP positive population,"[3]; wild-type, TS7-Mut_9::sfGFP, 5 µM, 4 h",~100%
"KFFKFFKFFK [cell-penetrating peptide …, carrier for PNA]",Reporter activation (sfGFP fluorescence vs water control),[5],highest reporter activation
same,Stability to proteases and in culture medium,[6],sensitive to proteases and degraded in nutrient-rich media such as MHB
same,Change of fluorescence over time,"[1]; 4, 6 and 17 h",decrease
same,Dynamics of sfGFP upregulation,[1],rapid upregulation at 4 h
same,Fold increase in fluorescence compared to the water-treated control,[2],highest fold increase in fluorescence
same,Speed of increase in fluorescence signal,[2],rapid increase in fluorescence signal
"RKKRRQRR [Seq35, cell-penetrating peptide RKKRRQRR]",Dynamics of sfGFP upregulation,[1],only showed upregulation at the 17 h time point
"RQIKIWFQNRRMKWKK [ANT, cell-penetrating peptide …]",Dynamics of sfGFP upregulation,[1],rapid upregulation at 4 h
same,Fold increase in fluorescence compared to the water-treated control,[2],highest fold increase in fluorescence
"RRRQRRKKRGY [Seq118, cell-penetrating peptide …]",Dynamics of sfGFP upregulation,[1],only showed upregulation at the 17 h time point
same,Reporter activation (fold upregulation of sfGFP vs water control),[7],fivefold
"RRRRR [R5, cell-penetrating peptide RRRRR]",Dynamics of sfGFP upregulation,[1],only showed upregulation at the 17 h time point
"RRWQW [L5a, cell-penetrating peptide RRWQW]",Fold increase in fluorescence compared to the water-treated control,[2],negligible upregulation
"RXRRXRRXRRXRXB [RXR-acpP, RXR conjugated to anti-acpP PNA …]",Time after which bacteria are eradicated,bacteria,15 min
"RXRRXRRXRRXRXB [cell-penetrating peptide RXRRXRRXRRXRXB, carrier for PNA]",Reporter activation (sfGFP fluorescence vs water control),[5],highest reporter activation
same,Stability to proteolytic degradation,"[6]; unconjugated carrier peptide, ref [47]",resistant to proteolytic degradation
same,Dynamics of sfGFP upregulation,[1],rapid upregulation at 4 h
same,Fold increase in fluorescence compared to the water-treated control,[2],highest fold increase in fluorescence
same,Speed of increase in fluorescence signal,[2],rapid increase in fluorescence signal
"VALLPAVLLA [Seq23, cell-penetrating peptide …]",Reporter activation (sfGFP fluorescence vs water control),[5],least effective PNA carrier
same,Dynamics of sfGFP upregulation,[1],least active carrier
same,Fold increase in fluorescence compared to the water-treated control,[2],none
